In brackets after ≈: the same amount, converted by molar mass. Like-named read-outs stand apart in the source and are kept apart here.
What was measured:
Format in all cases: cell-based
[1] = tested on: NTBC020 (E. coli strain expressing NDM-1, TEM-1 and CTX-M-15); assay: Meropenem MIC, broth micro-dilution, NTBC020; settings: Escherichia coli, read-out: MIC mero
Procedure: (§1) The experiments were carried out using the ‘broth micro-dilution method’ according to the protocols M07-A8 established by the Clinical Laboratory Standards Institute (CLSI). Serial dilutions of the β-lactam antibiotic (Meropenem) were prepared in 96-well plates in cation-adjusted Mueller-Hinton broth (CAMHB); the concentration range was defined from 0.03 mg/L to 512 mg/L. The compounds were added at a constant concentration of 8 μg/mL. A bacterial inoculum of each strain (clinical isolates) was adjusted to a 0.5 McFarland turbidity standard in physiologic serum (0.9% NaCl), then diluted 1:100 in CAMHB and added to each well to give a final bacterial cell number of 5×10^5 CFU/well. After incubation for 18-20 hours in a heating chamber at 37° C., the growth inhibition was evaluated by the absence of any bacterial development.
Compounds of the invention were tested at a constant concentration of 8 μg/mL. […]
(§2) Experiments were carried out using the ‘broth micro-dilution method’ according to the protocols M07-A8 established by the Clinical Laboratory Standards Institute (CLSI). […] After incubation for 18-20 hours in a heating chamber at 37° C., the growth inhibition was evaluated by the absence of any bacterial development. […]

[2] = tested on: NTBC187 (K. pneumonia strain expressing SHV-OSBL, NDM-1 and OXA-48); assay: Meropenem MIC, broth micro-dilution, NTBC187; settings: Klebsiella pneumoniae, read-out: MIC mero
Procedure: as §1, with “Experiments” for “The experiments”, “meropenem (mero)” for “the β-lactam antibiotic (Meropenem)”, “compounds (the compound of Example 2, above, and/or WCK4234)” for “compounds”, “the” for “a constant”, “indicated in the table below.” for “of 8 μg/mL.”
(§3) NTBC019 (K. pneumonia strain expressing NDM-1, CTX-M-15 and OXA-181); NTBC185 (K. pneumonia strain expressing SHV-OSBL, TEM-OSBL, NDM-1 and OXA-48); NTBC186 (K. pneumonia strain expressing ACT-TYPE, VIM-1 and OXA-48); NTBC187 (K. pneumonia strain expressing SHV-OSBL, NDM-1 and OXA-48); and NTBC188 (K. pneumonia strain expressing NDM-1 and KPC-2).

[3] = tested on: NTBC019 (K. pneumonia strain expressing NDM-1, CTX-M-15 and OXA-181); assay: Meropenem MIC, broth micro-dilution, NTBC019; settings: Klebsiella pneumoniae
Procedure: as §1, with “Experiments” for “The experiments”, “meropenem (mero)” for “the β-lactam antibiotic (Meropenem)”, “compounds (the compound of Example 2, above, and/or WCK4234)” for “compounds”, “the” for “a constant”, “indicated in the table below.” for “of 8 μg/mL.”
as §3
(§4) Experiments were conducted as described above. Compounds (the compounds of Examples 2 and 26) were tested at 8 μg/mL. […] MIC values were determined for […]

[4] = tested on: NTBC104-1 (K. pneumoniae strain expressing NDM-1 and SHV-11); assay: Meropenem MIC, broth micro-dilution, NTBC104-1; settings: Klebsiella pneumoniae
Procedure: as §1
Compounds of the invention were tested at a constant concentration of 8 μg/mL. The clinical strains used in these potentiation experiments were NTBC020 (E. coli strain expressing NDM-1, TEM-1 and CTX-M-15); NTBC035-2 (K. pneumoniae strain expressing NDM-1, CMY-4 and SHV-11); NTBC104-1 (K. pneumoniae strain expressing NDM-1 and SHV-11); NTBC123 (K. pneumoniae strain expressing NDM-1); NTBC018 (C. freundii strain expressing VIM-2); NTBC024 (K. pneumoniae strain expressing VIM-19, TEM-1 and CTX-M-3); NTBC042 (E. coli strain expressing VIM-1, TEM-1, CTX-M-15, SHV-12); NTBC055 (E. Coli strain expressing VIM-1); NTBC062 (K. pneumoniae strain expressing IMP-1 and TEM-1) and NTBC039 (K. oxytoca strain expressing IMP-28).
Mice were infected in the thigh with K. pneumoniae NTBC104. […] The MIC of meropenem in the presence of 8 ug/mL of the compound of Example 2 is 4 ug/mL.
as §2

[5] = tested on: NTBC186 (K. pneumonia strain expressing ACT-TYPE, VIM-1 and OXA-48); assay: Meropenem MIC, broth micro-dilution, NTBC186; settings: Klebsiella pneumoniae, read-out: MIC mero
Procedure: as §1, with “Experiments” for “The experiments”, “meropenem (mero)” for “the β-lactam antibiotic (Meropenem)”, “compounds (the compound of Example 2, above, and/or WCK4234)” for “compounds”, “the” for “a constant”, “indicated in the table below.” for “of 8 μg/mL.”
as §3

[6] = tested on: NTBC099 (K. pneumonia strain expressing KPC-3, SHV-11 and TEM-1); assay: Meropenem MIC, broth micro-dilution, NTBC099; settings: Klebsiella pneumoniae, read-out: MIC mero
Procedure: as §1, with “Experiments” for “The experiments”, “meropenem (mero)” for “the β-lactam antibiotic (Meropenem)”, “compounds (the compound of Example 2, above, and/or WCK4234)” for “compounds”, “the” for “a constant”, “indicated in the table below.” for “of 8 μg/mL.”
NTBC091-1 (E. coli strain expressing KPC-2 and TEM-1); NTBC093 (E. cloacae strain expressing KPC-2 and TEM-1); NTBC096-1 (K. pneumonia strain expressing OXA-181 and SHV-11); NTBC099 (K. pneumonia strain expressing KPC-3, SHV-11 and TEM-1); and NTBC189 (K. pneumonia strain expressing TEM-OSBL, CTX-M-14 and OXA-48).

[7] = tested on: NTBC188 (K. pneumonia strain expressing NDM-1 and KPC-2); assay: Meropenem MIC, broth micro-dilution, NTBC188; settings: Klebsiella pneumoniae
Procedure: as §1, with “Experiments” for “The experiments”, “meropenem (mero)” for “the β-lactam antibiotic (Meropenem)”, “compounds (the compound of Example 2, above, and/or WCK4234)” for “compounds”, “the” for “a constant”, “indicated in the table below.” for “of 8 μg/mL.”
as §3, §4

[8] = tested on: NTBC185 (K. pneumonia strain expressing SHV-OSBL, TEM-OSBL, NDM-1 and OXA-48); assay: Meropenem MIC, broth micro-dilution, NTBC185; settings: Klebsiella pneumoniae, read-out: MIC mero
Procedure: as §1, with “Experiments” for “The experiments”, “meropenem (mero)” for “the β-lactam antibiotic (Meropenem)”, “compounds (the compound of Example 2, above, and/or WCK4234)” for “compounds”, “the” for “a constant”, “indicated in the table below.” for “of 8 μg/mL.”
as §3

**Q.** How did the MIC [1] turn out when `C[C@@H](O)[C@H]1C(=O)N2C(C(=O)O)=C(S[C@@H]3CN[C@H](C(=O)N(C)C)C3)[C@H](C)[C@H]12` [Meropenem] was run?
**A.** 128 µg/mL

**Q.** What about the MIC [2] of the same molecule?
**A.** 128 µg/mL (≈ 334 µM)

**Q.** And the MIC ([3]; read-out: MIC mero)?
**A.** 64 µg/mL (≈ 167 µM)

**Q.** What about the MIC ([3]; read-out: MIC, NTBC19) of the same molecule?
**A.** 8 to 512 µg/mL (≈ 20.9 to 1340 µM)

**Q.** And the MIC ([4]; read-out: MIC mero)?
**A.** 64 µg/mL

**Q.** And the MIC ([4]; read-out: MIC of meropenem against K. pneumoniae NTBC104)?
**A.** 64 µg/mL

**Q.** And the MIC [5]?
**A.** 16 µg/mL (≈ 41.7 µM)

**Q.** What about the MIC [6] of the same molecule?
**A.** 128 µg/mL (≈ 334 µM)

**Q.** What about the MIC ([7]; read-out: MIC mero) of the same molecule?
**A.** 32 µg/mL (≈ 83.4 µM)

**Q.** What about the MIC ([7]; read-out: MIC, NTBC188) of the same molecule?
**A.** 8 to 512 µg/mL (≈ 20.9 to 1340 µM)

**Q.** What about the MIC [8] of the same molecule?
**A.** 128 µg/mL (≈ 334 µM)
